Results as given in patent US20250263650A1, “FUNGUS AND MICROBIAL AGENT FOR TREATING MERCURY CONTAMINATION, USE THEREOF, MERCURY REMOVAL METHOD, AND METHOD FOR I[…] CAPABLE OF TREATING MERCURY CONTAMINATION” (ZHEJIANG UNIVERSITY, priority 2021, published 2025).

System: Zea mays L. seeds
Experiment: Tolerance of Zea mays L. to methylmercury and divalent mercury (seed germination in soil)
Format: in vivo
Protocol: Methylmercury was added to the soil, where five concentrations of 0 μg/kg, 2.5 μg/kg, 5 μg/kg, 7.5 μg/kg, and 10 μg/kg were set. Divalent mercury was added to the soil, where five concentrations of 0 mg/kg, 20 mg/kg, 30 mg/kg, 40 mg/kg, and 50 mg/kg were set. The soil was placed in a cultivation vessel (with a height of 14 cm and a diameter of 7 cm).
Seed disinfection and cultivation: Zea mays L. seeds were disinfected for 5 min in 1% sodium hypochlorite and then washed three times with sterile water (1 min each time), disinfected for 10 min with 15% H2O2 and then washed three times with sterile water (1 min each time), and then placed in a 2% water agar medium and vernalized overnight at 4° C. Then, the pretreated seeds were sown into the soil, and 10 P. purpureum seeds or 5 Zea mays L. seeds were sown in each vessel.

Row | SMILES | germination rate of the Zea mays L. seeds (soil with 20 mg/kg divalent mercury) [%] | germination rate of the Zea mays L. seeds (soil with 30 mg/kg divalent mercury) [%] | germination rate of the Zea mays L. seeds (soil with 40 mg/kg divalent mercury) [%] | germination rate of the Zea mays L. seeds (soil with 2.5 μg/kg methylmercury) [%] | germination rate of the Zea mays L. seeds (soil with 10 μg/kg methylmercury) [%]
1 | [Hg+2] [divalent mercury] | 100 | 80 | 60 |  | 
2 | [CH3][Hg][Cl] [methylmercury] |  |  |  | 100 | 80
